Source: patent US12134663B2, “Cationic peptides for activating Lck” (Interk Peptide Therapeutics Limited, priority 2018, dated 2024)
Where no end group is shown, it is not given here. [ ]: non-standard residue; d: D form.

Experiments:
Lck = target: T1, Lck (Homo sapiens, UniProt P06239); assay: In vitro Lck activation kinase study (Eurofins); assay type: biochemical; details: peptide 1 μM; relative to control
T1 construct: purchased Eurofins Pharma Discovery Services UK Limited
Procedure: The ability of polypeptides of the present invention to activate Lck was examined in vitro. Lck is member of the Src family of tyrosine kinases. […] All results in are percentage Lck activity relative to control (100%).
Test polypeptides were assessed at a concentration of 1.0 μM.
The ability of polypeptides of the present invention to activate Src family kinases was examined in vitro. Kinase activation studies utilising peptides were carried out as described in Example 1, and all kinase activity values are shown as percentage relative to control.
The ability of polypeptides comprising both lysine and arginine to activate Lck in vitro was examined. Lck activation studies utilising peptides were carried out as described in Example 1, and all kinase activity values are shown as percentage relative to control.

exhausted CD4+ T cells = assay: CD4+ T cell exhaustion assay, CD25 on restimulation; assay type: cell-based, murine; details: 72 hours; relative to IK14000 control peptide
Text: A CD4+ T cell exhaustion assay using a murine model (Tg4 Ly5.1 (MBP-Tracker Mouse), B10PIxC57BL/6) was used whereby CD4+ T cell receptor transgenic T cells are stimulated with wild-type myelin basic protein peptide (WT-MBP) to produce fully responsive effector T cells or altered peptide ligand peptide MBP (APL-MBP) to produce exhausted T cells. These are rested in IL-2 and then a secondary stimulation with APC, a dose of APL-MBP peptide along with any treatments under investigation.
Spleens from the aforementioned mice were removed and processed to generate a single cell suspension of splenocytes. MBP-Tracker splenocytes were resuspended at 3×10^6/mL and stimulated with WT-MBP (control, non-exhausted cells) or APL-MBP (to generate exhausted cells). Cells were stimulated for 72 hr. Following stimulation, T cells were purified by Ficoll density gradient, and subsequently re-plated at 2×10^6/mL in 20 U/mL IL-2 for four days. […] Following 48-72b hours of culture the cells were assessed by flow cytometry for markers of IL-2Ra and proliferation (CD25 and Ki-67, respectively) and supernatant was collected for assessment of cytokine production (IFN-γ and TNF-α) by ELISA or multiplexed immunoassays. […]

[1] = system: anti-CD3 stimulated PBMCs; assay: IL-12p70 secretion in anti-CD3 stimulated PBMCs; assay type: cell-based, human; details: 24 hours
Procedure: The ability of Lck activating polypeptides to alter IL-12 (IL-12p70) secretion was examined further. In brief, anti-CD3 stimulated PBMCs were cultured together with the Lck activating polypeptides RVKVKVVVV-RRRRRRRRR (SEQ ID NO: 58, “IK15800”), RSKAKNPLY-RRRRRRRRR (SEQ ID NO: 24, “IK14800”), and RVKVKVVVV-RRRRRRRRR (SEQ ID NO: 58) and RSKAKNPLY-RRRRRRRRR (SEQ ID NO: 24) comprising only D amino acids (SEQ ID NO: 111, “IKD15800”, and SEQ ID NO: 129, “IKD14800”, respectively), in the presence and absence of anti-CD40L blocking antibody for 24 hours. Supernatants were assessed for IL-12p70 levels by ELISA.
The ability of Lck activating polypeptides to alter IL-12 (IL-12p70) secretion was examined relative to no peptide. In brief, PBMCs were cultured together with anti-CD3 (1 ug/ml) and the Lck activating polypeptide RSKAKNPLY-RRRRRRRRR (SEQ ID NO: 24) or RVKVKVVVV-RRRRRRRRR (SEQ ID NO: 58) for 24 or 72 hours. Supernatants were assessed for IL-12p70 levels by ELISA.

[2] = system: isolated human CD4+ T cells; assay: IFN-γ secretion in stimulated CD4+ T cell assay; assay type: cell-based; details: anti-CD3 anti-CD28 Dynabeads, 24 hours
Procedure: (§1) The ability of Lck activating polypeptides to alter IFN-γ secretion by isolated human CD4+ T cells in a stimulated CD4+ T cell assay was also examined. In brief, Isolated CD4+ T cells were stimulated with anti-CD3 anti-CD28 Dynabeads™ and cultured together with the Lck activating polypeptides RRRRRRRRR (SEQ ID NO: 6, IK00900) and RSKAKNPLY-RRRRRRRRR (SEQ ID NO: 24, IK14800) for 24 hours after which supernatants were assessed for IFN-γ by ELISA.
as §1, with “polypeptides comprising D amino acids” for “polypeptides”, “polypeptide” for “polypeptides RRRRRRRRR (SEQ ID NO: 6, IK00900) and”, “IK14800), or the Lck activating polypeptide RSKAKNPLY-RRRRRRRRR (SEQ ID NO: 24) comprising only D amino acids (SEQ ID NO: 129, IKD14800),” for “IK14800)”

[3] = system: isolated human CD8+ T cells; assay: IFN-γ secretion in stimulated CD8+ T cell assay; assay type: cell-based; details: anti-CD3 anti-CD28 Dynabeads, 24 hours
Procedure: as §1, with “CD8+” for “CD4+”, “was” for “was also”
In brief, Isolated CD8+ T cells were stimulated with anti-CD3 anti-CD28 Dynabeads™ and cultured together with the Lck activating polypeptide RSKAKNPLY-RRRRRRRRR (SEQ ID NO: 24), comprising only D amino acids (SEQ ID NO: 129, IKD14800), for 24 hours after which supernatants were assessed for IFN-γ by ELISA.

isolated CD8+ T cells = assay: IL-18Ra expression on stimulated CD8+ T cells; assay type: cell-based, human; details: 24 hours; data not shown
Procedure: The effect of Lck activating polypeptides on IL-18Ra expression on CD4+ and CD8+ T cells in stimulated CD4+ and CD8+ T cell assays was examined. In brief, isolated CD8+ T cells were stimulated with anti-CD3 anti-CD28 Dynabeads™ and cultured together with the Lck activating polypeptides RSKAKNPLY-RRRRRRRRR (SEQ ID NO: 24), and RSKAKNPLY-RRRRRRRRR (SEQ ID NO: 24) comprising only D amino acids (SEQ ID NO: 129), for 24 hours after which cells were assessed for IL-18Ra expression by flow cytometry.

isolated CD4+ T cells = assay: IL-18Ra expression on stimulated CD4+ T cells; assay type: cell-based, human; details: 24 hours; data not shown
Procedure: Isolated CD4+ T cells were stimulated with anti-CD3 anti-CD28 Dynabeads™ and cultured together with the Lck activating polypeptides RSKAKNPLY-RRRRRRRRR (SEQ ID NO: 24), and RSKAKNPLY-RRRRRRRRR (SEQ ID NO: 24) comprising only D amino acids (SEQ ID NO: 129), for 24 hours after which cells were assessed for IL-18Ra expression by flow cytometry.

isolated T cells (CD3+) = assay: IL-2 secretion from isolated T cells (CD3+); assay type: cell-based, human; details: anti-CD3 anti-CD28 Dynabeads, 0-1.25 μM, 72 hours
Procedure: In brief, isolated T cells (CD3+) were stimulated with anti-CD3 anti-CD28 Dynabeads™ and cultured together the Lck activating polypeptides RSKAKNPLY-RRRRRRRRR (SEQ ID NO: 24, “IK14800”), RVKVKVVVV-RRRRRRRRR (SEQ ID NO: 58, “IK15800”), and RVKVKVVVV-RRRRRRRRR ([…]) comprising only D amino acids (i.e. rvkvkvvvv-rrrrrrrrr; […], “IKD15800”), over a 5-concentration range plus vehicle control (0-1.25 μM) for 72 hours after which supernatants were collected and assessed for IL-2 by ELISA.

CD3neg CD56+ NK cells = CD3neg CD56+ NK cells within stimulated PBMCs (Ki67, CD25, CD215, CD360); assay type: cell-based, human; details: data not shown
Procedure: The ability of Lck activating polypeptides to induce proliferation of isolated human CD3^neg CD56^+ NK cells within PBMCs was examined. In brief, anti-CD3 stimulated PBMCs were cultured together with the Lck activating polypeptide rvkvkvvvv-rrrrrrrrr (SEQ ID NO: 111, IKD15800) for 72 hours after which CD3^neg CD56^+ NK cells were assessed for Ki67 expression by flow cytometry. Ki67 is a proliferation marker used to determine the growth fraction of a given cell population, in this case CD3^neg CD56^+ NK cells.

CD4+ T cells = assay: pSTAT4 expression in stimulated T cell assay; assay type: cell-based, human; details: 0-1.25 μM, 72 hours; data not shown
Text: The effect of Lck activating polypeptides on intracellular pSTAT4 expression in CD4+ and CD8+ T cells in a stimulated T cell assay was examined. In brief, isolated T cells (CD3+) were stimulated with anti-CD3 anti-CD28 Dynabeads™ and cultured together with the Lck activating polypeptides RSKAKNPLY-RRRRRRRRR (SEQ ID NO: 24), RVKVKVVVV-RRRRRRRRR (SEQ ID NO: 58) and RVKVKVVVV-RRRRRRRRR (SEQ ID NO: 58) comprising only D amino acids (SEQ ID NO: 111), over a 5-concentration range plus vehicle control (0-1.25 μM) for 72 hours after which […] assessed for p-STAT4 expression by flow cytometry.

[4] = system: immature monocyte derived DCs (iMoDCs); assay: Dendritic cell phenotype (CD14 expression) in immature DC cultures; assay type: cell-based; details: CD40L 5 ug/mL and anti-CD3, 72 hours; data not shown
Procedure: The effect of CD40L on dendritic cell phenotype (CD14 expression) in isolated immature DC cell cultures was examined. In brief, immature monocyte derived DCs (iMoDCs) were derived from isolated CD14+ monocytes cultured for 7 days in MoDC differentiation media. iMoDCs were cultured for 72 hours in the presence of CD40L (5 ug/mL) and anti-CD3 (1 ug/mL). After 72 hours, cells were assessed for CD14 and CD11c expression by flow cytometry to determine DC cell phenotype.
In brief, immature monocyte derived DCs (iMoDCs) were derived from isolated CD14+ monocytes cultured for 7 days in Mo-DC differentiation media. iMoDCs were cultured for 72 hrs in the presence of test peptides over a 5-point concentration curve plus vehicle (0-1.25 μM) and anti-CD3 (1 μg/mL). After 72 hrs, cells were assessed for CD14 and CD11c expression by flow cytometry to determine DC cell phenotype. Data presented indicates the mean respective CD14 positive or negative cell populations (%) within CD11c positive population in response to peptide treatment, +/− SEM, n=4. Data were analysed by RM two-way ANOVA with Dunnett's post-test comparing each peptide concentration with vehicle, *p<0.05, **p<0.01, ***p<0.001.

T1 sequence (P06239 whole entry): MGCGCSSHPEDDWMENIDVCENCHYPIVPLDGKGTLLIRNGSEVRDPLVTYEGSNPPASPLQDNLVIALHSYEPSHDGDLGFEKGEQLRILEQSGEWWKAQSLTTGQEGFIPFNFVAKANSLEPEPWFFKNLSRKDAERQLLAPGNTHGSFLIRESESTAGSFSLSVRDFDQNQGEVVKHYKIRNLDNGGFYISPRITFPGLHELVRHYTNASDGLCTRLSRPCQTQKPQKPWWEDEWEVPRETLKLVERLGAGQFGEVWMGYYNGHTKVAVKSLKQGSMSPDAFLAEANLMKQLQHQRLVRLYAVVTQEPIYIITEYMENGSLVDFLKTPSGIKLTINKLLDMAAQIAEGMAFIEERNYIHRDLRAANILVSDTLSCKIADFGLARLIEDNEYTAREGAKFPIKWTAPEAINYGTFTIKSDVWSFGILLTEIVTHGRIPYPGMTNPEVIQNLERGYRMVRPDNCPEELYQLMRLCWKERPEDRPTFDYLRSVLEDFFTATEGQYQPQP

| Molecule | increase in Lck activity (Lck) | expression of CD25 in exhausted CD4+ T cells upon restimulation (exhausted CD4+ T cells) | IL-12 (IL-12p70) secretion relative to cultures with anti-CD40L blocking antibody [1] | IFN-γ secretion relative to no peptide control [2] | IFN-γ secretion relative to no peptide control [3] | IL-18Ra expression on CD8+ T cells (isolated CD8+ T cells) | IL-18Ra expression on CD4+ T cells (isolated CD4+ T cells) | IL-2 secretion relative to control (isolated T cells (CD3+)) | proliferating population of CD3neg CD56+ NK cells (Ki67) (CD3neg CD56+ NK cells; 72 hours) | population of CD3neg CD56+ NK cells that were CD25 positive (CD3neg CD56+ NK cells) | population of CD3neg CD56+ NK cells that were CD215 positive (CD3neg CD56+ NK cells) | population of CD3neg CD56+ NK cells that were CD360 positive (CD3neg CD56+ NK cells) | p-STAT4 expression on CD4+ T cells (CD4+ T cells) | proportion of CD14 negative CD11c+ dendritic cells [4] |
| --- | --- | --- | --- | --- | --- | --- | --- | --- | --- | --- | --- | --- | --- | --- |
| rskaknplyrrrrrrrrr ([dR][dS][dK][dA][dK][dN][dP][dL][dY][dR][dR][dR][dR][dR][dR][dR][dR][dR]) [IKD14800] | 490% | increased | induce IL-12 secretion | induces IFN-γ secretion | induces IFN-γ secretion | increase IL-18Ra expression | increase IL-18Ra expression | – | – | – | – | – | – | – |
| rvkvkvvvv-rrrrrrrrr ([dR][dV][dK][dV][dK][dV][dV][dV][dV][dR][dR][dR][dR][dR][dR][dR][dR][dR]) [IKD15800] | – | – | induce IL-12 secretion | – | – | – | – | induce IL-2 secretion | increased the proliferating population | increased the population | increased the population | increased the population | increase p-STAT4 expression | – |
| CD40L: CD40L (5 ug/mL) added to immature monocyte derived DC cultures (protein, UniProt P29965 113-261, looked up) CD40 ligand, soluble form: MQKGDQNPQIAAHVISEASSKTTSVLQWAEKGYYTMSNNLVTLENGKQLTVKRQGLYYIYAQVTFCSNREASSQAPFIASLCLKSPGRFERILLRAANTHSSAKPCGQQSIHLGGVFELQPGASVFVNVTDPSQVSHGTGFTSFGLLKL | – | – | – | – | – | – | – | – | – | – | – | – | – | increased the proportion of CD14 negative CD11c+ dendritic cells |
